From patent US11833139B2 (priority 2019, dated 2023)
Like-named read-outs stand apart in the source and are kept apart here.

Key:
A. baumannii HUMC1 = assay: MIC by broth microdilution (CLSI), carbapenem-resistant clinical isolate HUMC1; assay type: cell-based, Acinetobacter baumannii
Procedure: (§1) Two A. baumannii isolates were used in this example: HUMC1 (BV374) (Spellberg/Luna Laboratory, University of Southern California, Los Angeles, Calif.) and UNT091-1 (BV378) (UNT Health Science Center, Fort Worth, Tex.). The HUMC1 isolate is a hyper-virulent drug-resistant clinical strain isolated from a blood-stream infection. […] The isolates were stored at −80° C. as 20% (v/v) glycerol cultures.
(§2) MICs were determined by the broth microdilution method following the guidelines of the Clinical Laboratory Standards Institute (CLSI) using RPMI supplemented with […] cationic-adjusted Muller Hinton broth (CA-MHB) as assay medium. To prepare the bacterial inocula, 3-5 colonies of bacterial strains from over-night growth on ChromAgar orientation plates (CHROMagar Cat. No. RT412) were suspended in 5 mL saline. The turbidity of the bacterial suspension was adjusted to 0.5 McFarland units (equal to an optical density at 610 nm (OD610) to 0.08-0.1). This suspension was diluted 200-fold in RPMI supplemented with 10% (v/v) FCS to reach a final concentration of […] colony forming units (CFU)/mL and was used to inoculate the microtiter plates.
(§3) Serial 2-fold dilutions of the antibiotics were prepared in a separate 96-well plate polypropylene U-bottom plate (Ratiolab Cat. No. 6018111) in RPMI supplemented with 10% (v/v) FCS at 10-fold of the final test concentrations and 10 μl of the dilutions were transferred to new 96-well polystyrene U-bottom microtiter plates with a parafilm plate cover.
(§4) The plates were then inoculated with 90 μL per well of the prepared bacterial suspensions in using a multichannel pipette (Eppendorf), with the first column containing 4 wells each for growth control (no antibiotic). […] The MIC was recorded as the lowest concentration of the compound that inhibited bacterial growth by visual inspection. MICs were determined at least in duplicates and in the case of variations, the higher values are provided.

A. baumannii UNT091 = assay: MIC by broth microdilution (CLSI), carbapenem-resistant clinical isolate UNT091; assay type: cell-based, Acinetobacter baumannii
Procedure: as §1, §2, §3, §4

Row | Compound | MIC (A. baumannii HUMC1; Acinetobacter baumannii, HUMC1, HUMC1, CA-MHB (Table 1), read-out: MIC) [µg/mL] | MIC (A. baumannii HUMC1; Acinetobacter baumannii, HUMC1, HUMC1, RPMI plus 10% FCS (Table 1), read-out: MIC) [µg/mL] | MIC (A. baumannii UNT091; Acinetobacter baumannii, UNT091, UNT091, CA-MHB (Table 1), read-out: MIC) [µg/mL] | MIC (A. baumannii UNT091; Acinetobacter baumannii, UNT091, UNT091, RPMI plus 10% FCS (Table 1), read-out: MIC) [µg/mL] | MIC (A. baumannii HUMC1; HUMC1, CA-MHB (Table 1)) [µg/mL] | MIC (A. baumannii HUMC1; HUMC1, RPMI plus 10% FCS (Table 1)) [µg/mL] | MIC (A. baumannii UNT091; UNT091, CA-MHB (Table 1)) [µg/mL] | MIC (A. baumannii UNT091; UNT091, RPMI plus 10% FCS (Table 1)) [µg/mL]
1 | CO/N=C(\C(=O)N[C@@H]1C(=O)N2C(C(=O)O)=C(COC(C)=O)CS[C@H]12)c1csc(N)n1 [cefotaxime] | > 64 | > 64 | > 64 | > 64 | – | – | – | –
2 | gentamicin | – | – | – | – | >16 | >16 | >16 | >16
